Results on eight molecules are retold here after patent US10759816B2, “Heterocyclic compounds as RSV inhibitors” (Enanta Pharmaceuticals, Inc., priority 2016, dated 2020).

The subject of the first assay is genotype A, "Long" strain RSV. Put plainly: RSV-A in vitro cytoprotection assay in HEp-2 cells (ATPlite readout of cell viability). The format is cell-based, Human respiratory syncytial virus. The conditions noted are these: human respiratory syncytial virus, HEp-2. Put shortly:
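HEp-2 cells (8,000/well) given 2-fold compound dilutions in duplicate, then infected with RSV-A Long strain stock; viability read by ATPlite luminescence after 4 days. EC50 derived from cytoprotection; cytotoxicity measured on parallel uninfected plate.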
On the technique in general: Cellular ATP, detected with luciferase, serves as a proxy for viable cell number.
In the case of `O=C(Nc1ccccc1F)N[C@H]1N=C(c2ccccc2)c2ccccc2NC1=O` [RSV-604, reference compound], the EC50 was around 2400 nM.

Still in this assay, the particulars now being: human respiratory syncytial virus, HEp-2, HEp-2 cells, genotype A “Long” strain RSV, cytoprotection; read-out: Human RSV-A (“Long” strain) EC50.
Consider `COC[C@@H](Nc1cccc(C(=O)N2CCc3cc(C(=O)Nc4c(C)cccc4F)sc3-c3ccccc32)n1)c1ccccc1` [Example 501], for which the EC50 is above 800 nM.

In the case of `Cc1cccc(F)c1NC(=O)c1cc2c(s1)-c1ccccc1N(C(=O)c1cccc(N[C@H](CO)c3ccccc3)n1)CC2` [Example 502], the EC50 is below 400 nM.

For the molecule `Cc1cccc(F)c1NC(=O)c1cc2c(s1)-c1cccc(F)c1N(C(=O)c1cccc(N3CCCOCC3)n1)CC2` [Example 503], the concentration for a half-maximal effect (EC50) is below 400 nM.

Take `Cc1cccc(F)c1NC(=O)c1cc2c(s1)-c1cccc(F)c1N(C(=O)c1cccc(N3CCOc4ccccc4C3)n1)CC2` [Example 504]: the EC50 is above 800 nM.

Consider `COC[C@@H]1CCCN1c1cccc(C(=O)N2CCc3cc(C(=O)Nc4c(C)cccc4F)sc3-c3ccccc32)n1` [Example 505], for which the EC50 is below 400 nM.

Take `COC[C@H]1CCCN1c1cccc(C(=O)N2CCc3cc(C(=O)Nc4c(C)cccc4F)sc3-c3ccccc32)n1` [Example 506]: the EC50 was below 400 nM.

For `COC[C@H]1CCN1c1cccc(C(=O)N2CCc3cc(C(=O)Nc4c(C)cccc4F)sc3-c3ccccc32)n1` [Example 507], the EC50 was below 400 nM.

As a reminder, the EC50 is the midpoint of the concentration-response curve.
